# Laboratory results: ChEMBL document CHEMBL3991601, “The target landscape of clinical kinase drugs” (Science, 2017)
# The source made the active and inactive calls. On the calls: in the data inactive means no Kd found up to 30 µM.
# Assays:
# [1] = target: T1, Dynamin-like GTPase OPA1, mitochondrial (Homo sapiens, UniProt O60313)
# T1 sequence (O60313 whole entry): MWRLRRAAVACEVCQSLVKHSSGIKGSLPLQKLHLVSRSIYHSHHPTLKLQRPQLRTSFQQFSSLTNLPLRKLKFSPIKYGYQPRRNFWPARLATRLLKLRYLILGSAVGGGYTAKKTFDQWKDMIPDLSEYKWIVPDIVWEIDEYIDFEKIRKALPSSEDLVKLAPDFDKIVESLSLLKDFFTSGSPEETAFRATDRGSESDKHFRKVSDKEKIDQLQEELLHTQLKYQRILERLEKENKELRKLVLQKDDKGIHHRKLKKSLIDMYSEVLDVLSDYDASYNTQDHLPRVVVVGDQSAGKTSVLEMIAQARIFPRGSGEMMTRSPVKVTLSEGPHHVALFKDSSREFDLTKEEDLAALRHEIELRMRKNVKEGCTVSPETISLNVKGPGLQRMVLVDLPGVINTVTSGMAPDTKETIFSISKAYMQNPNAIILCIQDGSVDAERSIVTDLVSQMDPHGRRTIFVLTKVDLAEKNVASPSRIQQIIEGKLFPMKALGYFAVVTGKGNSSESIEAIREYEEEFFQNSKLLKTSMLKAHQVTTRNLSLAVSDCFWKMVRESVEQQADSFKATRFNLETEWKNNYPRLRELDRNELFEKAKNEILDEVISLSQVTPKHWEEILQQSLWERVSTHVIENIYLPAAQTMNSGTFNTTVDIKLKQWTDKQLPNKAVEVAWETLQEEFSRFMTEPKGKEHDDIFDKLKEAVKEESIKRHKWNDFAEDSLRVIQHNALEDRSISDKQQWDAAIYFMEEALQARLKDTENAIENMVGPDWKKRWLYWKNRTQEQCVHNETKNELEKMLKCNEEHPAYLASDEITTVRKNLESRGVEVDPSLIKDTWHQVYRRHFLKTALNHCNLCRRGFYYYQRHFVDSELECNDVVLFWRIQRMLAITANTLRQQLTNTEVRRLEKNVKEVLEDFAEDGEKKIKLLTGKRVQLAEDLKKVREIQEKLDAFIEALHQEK
# [2] = target: T2, Serine/threonine-protein kinase Nek1 (Homo sapiens, UniProt Q96PY6)
# T2 sequence (Q96PY6 whole entry): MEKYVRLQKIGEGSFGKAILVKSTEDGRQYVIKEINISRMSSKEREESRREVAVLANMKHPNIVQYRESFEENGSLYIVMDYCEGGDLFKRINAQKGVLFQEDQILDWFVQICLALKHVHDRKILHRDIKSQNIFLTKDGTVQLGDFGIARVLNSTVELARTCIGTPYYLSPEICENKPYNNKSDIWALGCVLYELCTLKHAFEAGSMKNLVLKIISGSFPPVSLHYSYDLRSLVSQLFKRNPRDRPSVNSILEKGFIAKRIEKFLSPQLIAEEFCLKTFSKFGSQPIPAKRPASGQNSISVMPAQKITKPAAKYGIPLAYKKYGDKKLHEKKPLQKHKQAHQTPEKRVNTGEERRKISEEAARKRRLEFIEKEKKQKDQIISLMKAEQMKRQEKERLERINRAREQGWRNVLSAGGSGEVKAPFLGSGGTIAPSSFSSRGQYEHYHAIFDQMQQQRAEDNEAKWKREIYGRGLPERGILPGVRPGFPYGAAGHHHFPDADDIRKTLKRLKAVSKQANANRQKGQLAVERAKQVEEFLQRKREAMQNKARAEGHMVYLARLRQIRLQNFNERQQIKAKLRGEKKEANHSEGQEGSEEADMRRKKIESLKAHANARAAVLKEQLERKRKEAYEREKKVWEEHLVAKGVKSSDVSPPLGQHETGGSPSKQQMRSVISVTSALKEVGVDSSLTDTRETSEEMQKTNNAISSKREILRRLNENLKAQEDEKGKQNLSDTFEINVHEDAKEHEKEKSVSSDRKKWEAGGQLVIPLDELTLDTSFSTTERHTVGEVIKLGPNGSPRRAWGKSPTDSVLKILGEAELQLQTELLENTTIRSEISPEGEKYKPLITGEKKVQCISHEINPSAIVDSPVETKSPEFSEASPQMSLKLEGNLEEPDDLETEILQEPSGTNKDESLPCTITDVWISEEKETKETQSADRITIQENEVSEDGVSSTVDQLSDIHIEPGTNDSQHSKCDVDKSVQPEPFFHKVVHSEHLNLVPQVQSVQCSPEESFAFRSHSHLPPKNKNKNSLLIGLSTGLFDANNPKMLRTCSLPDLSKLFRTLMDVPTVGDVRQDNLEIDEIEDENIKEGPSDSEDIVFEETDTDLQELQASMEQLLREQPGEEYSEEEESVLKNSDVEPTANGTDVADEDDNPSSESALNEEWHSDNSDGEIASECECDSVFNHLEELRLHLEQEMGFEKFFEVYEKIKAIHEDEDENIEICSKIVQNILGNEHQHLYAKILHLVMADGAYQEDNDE
Kd [1],Kd [2],Structure (SMILES)
> 30 µM (inactive),> 30 µM (inactive),Cn1c(=O)c(F)c(Nc2ccc(I)cc2F)c2c(=O)n(C[C@@H](O)CO)cnc21 [TAK-733]
> 30 µM (inactive),> 30 µM (inactive),COc1cccc(Nc2ncnn3ccc(CN4CC[C@@H](N)[C@H](O)C4)c23)c1 [BMS-690514]
> 30 µM (inactive),> 30 µM (inactive),COc1cc2ncnc(Nc3ccc(O)cc3)c2cc1OC [WHI-P131]
> 30 µM (inactive),> 30 µM (inactive),O[C@H]1CC[C@H](Nc2ncc3nc(Nc4c(F)cc(F)cc4F)n([C@H]4CCOC4)c3n2)CC1 [TANZISERTIB]
> 30 µM (inactive),> 30 µM (inactive),CCOc1ccn(-c2ccc(F)cc2)c(=O)c1C(=O)Nc1ccc(Oc2ccnc(N)c2Cl)c(F)c1 [BMS-777607]
> 30 µM (inactive),> 30 µM (inactive),Cc1ccc(C(=O)Nc2ccc(Oc3cc4cnn(C)c4cc3-c3cn[nH]c3)c(F)c2)c(=O)n1-c1ccc(F)cc1 [MERESTINIB]
> 30 µM (inactive),> 30 µM (inactive),Cn1c(=O)n(-c2ccc(C(C)(C)C#N)cc2)c2c3cc(-c4cnc5ccccc5c4)ccc3ncc21 [DACTOLISIB]
> 30 µM (inactive),> 30 µM (inactive),Cc1cc(-c2cc(OC(=O)c3ccccc3)ccc2Cl)cc2nnc(Nc3ccc(OCCN4CCCC4)cc3)nc12 [TG100-801]
> 30 µM (inactive),> 30 µM (inactive),COc1cccc2cc(-c3nc([C@H]4CC[C@H](C(=O)O)CC4)n4ncnc(N)c34)[nH]c12 [OSI-027]
> 30 µM (inactive),0.365 µM (active),Cc1cc(C(=O)Nc2cc(Oc3ccc4nc(NC(=O)C5CC5)cn4n3)ccc2C)n(C)n1 [TAK-593]
> 30 µM (inactive),> 30 µM (inactive),NC(=O)c1ccc(N(C(N)=O)c2c(F)cccc2F)nc1-c1ccc(F)cc1F [VX-702]
> 30 µM (inactive),> 30 µM (inactive),c1cc(OCCN2CCCCC2)cc(-c2n[nH]c3ccc(-c4nc[nH]n4)cc23)c1 [CC-401]

Structure (SMILES),Kd [1],Kd [2]
C=CCN(/C=C1/C(=O)O[C@H](COC)[C@@]2(C)C1=C(O)C(=O)C1=C2[C@H](OC(C)=O)C[C@]2(C)C(=O)CC[C@@H]12)CC=C [SONOLISIB],> 30 µM (inactive),> 30 µM (inactive)
CCc1nc(C(N)=O)c(Nc2ccc(N3CCC(N4CCN(C)CC4)CC3)c(OC)c2)nc1NC1CCOCC1 [GILTERITINIB],> 30 µM (inactive),> 30 µM (inactive)
Cn1cc(-c2[nH]c3cc(NC(=O)[C@H](N)C4CCCCC4)cc4c3c2C=NNC4=O)cn1,> 30 µM (inactive),> 30 µM (inactive)
C=CC(=O)Nc1cc(Nc2nccc(-c3cn(C)c4ccccc34)n2)c(OC)cc1N(C)CCN(C)C [OSIMERTINIB],> 30 µM (inactive),> 30 µM (inactive)
CNC(=O)c1ccc(Nc2ncc(C(F)(F)F)c(NCc3nccnc3N(C)S(C)(=O)=O)n2)cc1 [DEFACTINIB],> 30 µM (inactive),> 30 µM (inactive)
CN1CCN(c2nc(C3=C(c4c[nH]c5ccccc45)C(=O)NC3=O)c3ccccc3n2)CC1 [SOTRASTAURIN],> 30 µM (inactive),> 30 µM (inactive)
